Results taken from PubChem BioAssay (NCI).
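The compound was tested at five concentrations on cells cultured in 96-well plates, with a 48-hour exposure period. TGI marks complete inhibition of growth.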

Experiments:
Experiment in all cases: DTP human tumour cell line panel, 48 h
SF-295 CNS = test system: SF-295 CNS
ACHN renal = test system: ACHN renal
SF-268 CNS = test system: SF-268 CNS
NCI-H522 lung = test system: NCI-H522 lung
KM12 colon = test system: KM12 colon
BT-549 breast = test system: BT-549 breast
UACC-62 melanoma = test system: UACC-62 melanoma
NCI-H23 lung = test system: NCI-H23 lung
A498 renal = test system: A498 renal
SK-MEL-28 melanoma = test system: SK-MEL-28 melanoma
HOP-92 NSCLC = test system: HOP-92 NSCLC
OVCAR-3 ovarian = test system: OVCAR-3 ovarian
CCRF-CEM leukemia = test system: CCRF-CEM leukemia
COLO 205 colon = test system: COLO 205 colon
HS 578T breast = test system: HS 578T breast
SNB-75 CNS = test system: SNB-75 CNS
MOLT-4 leukemia = test system: MOLT-4 leukemia
MDA-MB-435 = test system: MDA-MB-435
SN12C renal = test system: SN12C renal
SK-OV-3 ovarian = test system: SK-OV-3 ovarian
T-47D breast = test system: T-47D breast
SK-MEL-5 melanoma = test system: SK-MEL-5 melanoma
MCF7 breast = test system: MCF7 breast
HCT-15 colon = test system: HCT-15 colon
RXF 393 renal = test system: RXF 393 renal
M14 melanoma = test system: M14 melanoma
HCC-2998 colon = test system: HCC-2998 colon
UACC-257 melanoma = test system: UACC-257 melanoma
MALME-3M melanoma = test system: MALME-3M melanoma
EKVX NSCLC = test system: EKVX NSCLC
NCI-H460 lung = test system: NCI-H460 lung
HCT-116 colon = test system: HCT-116 colon
786-0 renal = test system: 786-0 renal
DU-145 prostate = test system: DU-145 prostate
CAKI-1 renal = test system: CAKI-1 renal
LOX IMVI melanoma = test system: LOX IMVI melanoma
A549 NSCLC = test system: A549 NSCLC
UO-31 renal = test system: UO-31 renal
MDA-N = test system: MDA-N
HT29 colon = test system: HT29 colon
HL-60(TB) leukemia = test system: HL-60(TB) leukemia
SR leukemia = test system: SR leukemia
OVCAR-4 ovarian = test system: OVCAR-4 ovarian
SNB-19 CNS = test system: SNB-19 CNS
NCI/ADR-RES ovarian = test system: NCI/ADR-RES ovarian
SF-539 CNS = test system: SF-539 CNS
OVCAR-5 ovarian = test system: OVCAR-5 ovarian
K-562 leukemia = test system: K-562 leukemia
TK-10 renal = test system: TK-10 renal
RPMI-8226 leukemia = test system: RPMI-8226 leukemia
HOP-62 NSCLC = test system: HOP-62 NSCLC
NCI-H226 lung = test system: NCI-H226 lung
IGROV1 ovarian = test system: IGROV1 ovarian
SW-620 colon = test system: SW-620 colon
PC-3 prostate = test system: PC-3 prostate
OVCAR-8 ovarian = test system: OVCAR-8 ovarian
U251 CNS = test system: U251 CNS
SK-MEL-2 melanoma = test system: SK-MEL-2 melanoma
MDA-MB-231 breast = test system: MDA-MB-231 breast

S=C=NC1CCC(c2cc3ccccc3s2)(N2CCCCC2)CC1 (stereo unspecified)
TGI (SF-295 CNS): 7.39 µM | TGI (ACHN renal): 3.34 µM | TGI (SF-268 CNS): 4.3 µM | TGI (NCI-H522 lung): 3.23 µM | TGI (KM12 colon): 3.95 µM | TGI (BT-549 breast): 6.55 µM | TGI (UACC-62 melanoma): 3.6 µM | TGI (NCI-H23 lung): 3.85 µM | TGI (A498 renal): 5.1 µM | TGI (SK-MEL-28 melanoma): 3.39 µM | TGI (HOP-92 NSCLC): 3.56 µM | TGI (OVCAR-3 ovarian): 4.34 µM | TGI (CCRF-CEM leukemia): 2.5 µM | TGI (COLO 205 colon): 3.93 µM | TGI (HS 578T breast): 4.73 µM | TGI (SNB-75 CNS): 4.2 µM | TGI (MOLT-4 leukemia): 1.01 µM | TGI (MDA-MB-435): 3.19 µM | TGI (SN12C renal): 3.77 µM | TGI (SK-OV-3 ovarian): 4.59 µM | TGI (T-47D breast): 25.3 µM | TGI (SK-MEL-5 melanoma): 2.94 µM | TGI (MCF7 breast): 5.72 µM | TGI (HCT-15 colon): 3.7 µM | TGI (RXF 393 renal): 3.16 µM | TGI (M14 melanoma): 4.39 µM | TGI (HCC-2998 colon): 3.22 µM | TGI (UACC-257 melanoma): 3.54 µM | TGI (MALME-3M melanoma): 3.04 µM | TGI (EKVX NSCLC): 4.69 µM | TGI (NCI-H460 lung): 3.54 µM | TGI (HCT-116 colon): 3.58 µM | TGI (786-0 renal): 3.26 µM | TGI (DU-145 prostate): 4.52 µM | TGI (CAKI-1 renal): 3.45 µM | TGI (LOX IMVI melanoma): 3.03 µM | TGI (A549 NSCLC): 11.1 µM | TGI (UO-31 renal): 3.66 µM | TGI (MDA-N): 3.73 µM | TGI (HT29 colon): 3.66 µM | TGI (HL-60(TB) leukemia): 3.09 µM | TGI (SR leukemia): 2.12 µM | TGI (OVCAR-4 ovarian): 3.7 µM | TGI (SNB-19 CNS): 7.79 µM | TGI (NCI/ADR-RES ovarian): 5.68 µM | TGI (SF-539 CNS): 3.77 µM | TGI (OVCAR-5 ovarian): 3.7 µM | TGI (K-562 leukemia): 1.98 µM | TGI (TK-10 renal): 3.45 µM

CC1C(c2ccccc2O)c2cc3c(cc2OC1N1CCOCC1)OCO3 (stereo unspecified)
TGI (RPMI-8226 leukemia): 39.1 µM | TGI (SF-295 CNS): 62 µM | TGI (ACHN renal): > 100 µM | TGI (SF-268 CNS): > 100 µM | TGI (NCI-H522 lung): 37.8 µM | TGI (KM12 colon): 91.6 µM | TGI (BT-549 breast): > 100 µM | TGI (UACC-62 melanoma): 90.2 µM | TGI (NCI-H23 lung): 81 µM | TGI (A498 renal): 52.1 µM | TGI (SK-MEL-28 melanoma): > 100 µM | TGI (HOP-62 NSCLC): 35.8 µM | TGI (NCI-H226 lung): 77.4 µM | TGI (HOP-92 NSCLC): 71.1 µM | TGI (OVCAR-3 ovarian): 60.6 µM | TGI (CCRF-CEM leukemia): 61.3 µM | TGI (COLO 205 colon): 46.6 µM | TGI (HS 578T breast): 57.9 µM | TGI (SNB-75 CNS): 91.3 µM | TGI (IGROV1 ovarian): > 100 µM | TGI (MOLT-4 leukemia): 83.7 µM | TGI (MDA-MB-435): 82.8 µM | TGI (SW-620 colon): > 100 µM | TGI (SN12C renal): > 100 µM | TGI (SK-OV-3 ovarian): > 100 µM | TGI (T-47D breast): > 100 µM | TGI (SK-MEL-5 melanoma): 62.3 µM | TGI (MCF7 breast): > 100 µM | TGI (HCT-15 colon): > 100 µM | TGI (RXF 393 renal): 48.9 µM | TGI (PC-3 prostate): > 100 µM | TGI (M14 melanoma): > 100 µM | TGI (HCC-2998 colon): 64.3 µM | TGI (OVCAR-8 ovarian): > 100 µM | TGI (UACC-257 melanoma): 47 µM | TGI (MALME-3M melanoma): 35.1 µM | TGI (EKVX NSCLC): > 100 µM | TGI (NCI-H460 lung): 49.2 µM | TGI (U251 CNS): 64.7 µM | TGI (HCT-116 colon): 75.9 µM | TGI (786-0 renal): > 100 µM | TGI (DU-145 prostate): > 100 µM | TGI (CAKI-1 renal): 77.5 µM | TGI (LOX IMVI melanoma): 41.3 µM | TGI (SK-MEL-2 melanoma): 72.5 µM | TGI (A549 NSCLC): 80.7 µM | TGI (MDA-MB-231 breast): 73.9 µM | TGI (UO-31 renal): > 100 µM | TGI (MDA-N): > 100 µM | TGI (HT29 colon): 68.4 µM | TGI (HL-60(TB) leukemia): 40 µM | TGI (SR leukemia): 29.5 µM | TGI (SNB-19 CNS): > 100 µM | TGI (SF-539 CNS): 46.5 µM | TGI (OVCAR-5 ovarian): > 100 µM | TGI (K-562 leukemia): 90.6 µM | TGI (TK-10 renal): 97.6 µM
